Test results published in paper PMC10970924 (Life, 2024).
“And” between values parts separate entries of the source, which are not always exact repeats. Identical values can stand only once.

Assays:
[1] = system: MDA-MB-231; experiment: Proliferation by impedance biosensor (RTCA DP Analyzer); format: cell-based; conditions: Homo sapiens, MDA-MB-231, 72 h, incubation three days, read-out: IC50 inhibitory concentration, MDA-MB-231
Protocol: (§1) The effect of the test compounds on the proliferation of multiple cell lines was assessed in real time using the RTCA DP Analyzer (Roche, Basel, Switzerland). For this purpose, we used specialized E-plates containing wells similar in size to a standard 96-well plate, but their bottoms were covered with microelectrodes to assess impedance. When cells adhere to the microelectrodes, the impedance of the well changes, which allows us to calculate the cell index proportional to the cell number. In the experiment, cells were seeded in the E-plate at densities of 20,000 cells per milliliter (180 μL/well). At 24 h post-cell attachment, 20 μL of compounds at various test concentrations or solvent as a control were introduced, and cells were then cultured with real-time impedance registration for 5 days.

[2] = system: HSF; experiment: as above; format: cell-based; conditions: Homo sapiens, 72 h, incubation three days, read-out: IC50 inhibitory concentration, HSF
Protocol: as §1

[3] = system: SF-539; experiment: as above; format: cell-based; conditions: Homo sapiens, SF-539, 72 h, incubation three days, read-out: IC50 inhibitory concentration, SF-539
Protocol: as §1

[4] = system: HCT-116; experiment: as above; format: cell-based; conditions: Homo sapiens, HCT-116, 72 h, incubation three days, read-out: IC50 inhibitory concentration, HCT-116
Protocol: as §1

[5] = system: PC-3; experiment: as above; format: cell-based; conditions: Homo sapiens, PC-3, 72 h, incubation three days, read-out: IC50 inhibitory concentration, PC-3
Protocol: as §1

[6] = system: MDA-MB-231; experiment: Colony formation assay; format: cell-based; conditions: Homo sapiens, MDA-MB-231, 72 h, incubation three days, read-out: Inhibitory concentration IC50, MDA-MB-231
Protocol: (§2) Cells were cultured in a 24-well plate with 1 mL of DMEM nutrient medium for 24 h. […] The experiment was conducted in triplicate and in two or three independent repetitions. Only solvent was added to the control wells instead of the test compounds. Incubation with the drugs continued for three days, after which the grown colonies were washed with cold PBS solution and fixed in a fixing buffer (10% acetic acid, 10% methanol in distilled water) for 15 min. The colonies were stained with a 0.4% solution of crystal violet in 20% ethanol for 30 min and then washed 3 times with dH2O and analyzed under a microscope. The colonies were then dissolved in 10% acetic acid for 40 min on a shaker, and the absorbance of the lysate was read at 590 nm. Results were expressed as a percentage relative to the control, and a dose–response curve was plotted to determine the IC50 value.

[7] = system: SNB-19; experiment: Colony formation assay; format: cell-based; conditions: Homo sapiens, SNB-19, 72 h, incubation three days, read-out: Inhibitory concentration IC50, SNB-19
Protocol: as §2

[8] = system: HCT-15; experiment: Colony formation assay; format: cell-based; conditions: Homo sapiens, HCT-15, 72 h, incubation three days, read-out: Inhibitory concentration IC50, HCT-15
Protocol: as §2

[9] = system: NCI-H322M; experiment: Colony formation assay; format: cell-based; conditions: Homo sapiens, 72 h, incubation three days, read-out: Inhibitory concentration IC50, NCI-H322M
Protocol: as §2

[10] = system: HSF; experiment: Colony formation assay; format: cell-based; conditions: Homo sapiens, 72 h, incubation three days, read-out: Inhibitory concentration IC50, HSF
Protocol: as §2

[11] = system: MCF-7; experiment: Proliferation by impedance biosensor (RTCA DP Analyzer); format: cell-based, human; conditions: test concentration selected from biosensor data
Protocol: as §1

Compound: COc1cccc2c1C(=O)c1c(O)c3c(c(O)c1C2=O)CC(O)(C(=O)CO)CC3OC1CC(NC(=O)/C=C/c2cnc(C)c3c2COC(C)(C)O3)C(O)C(C)O1 (stereo not shown) [DOX-2, (E)-N-(3-hydroxy-2-methyl-6-((3,5,12-trihydroxy-3-(2-hydroxyacetyl)-10-methoxy-6,11-dioxo-1,2,3,4,6,11-hexahydrotetracen-1-yl)oxy)tetrahydro-2H-pyran-4-yl)-3-(2,2,8-trimethyl-4H-[1,3]dioxino[4,5-c]pyridin-5-yl)acrylamide]
- IC50 [1]: 47.6 ± 26.1 µM
- IC50 [2]: ~100 µM
- IC50 [3]: 11.6 ± 8.55 µM
- IC50 [4]: 1.67 ± 0.02 µM
- IC50 [5]: 40.3 ± 13.5 µM
- IC50 [6]: 0.34 ± 0.06 µM
- IC50 [7]: 1.05 ± 0.34 µM
- IC50 [8]: 110 ± 21.9 µM
- IC50 [9]: > 100 µM
- IC50 [10]: > 100 µM
- IC20 ([11]; Homo sapiens, MCF7): 1.5 µM
- IC0, MCF-7 [11]: 0.4 µM
- IC4, MCF-7 [11]: 0.7 µM
- IC30, MCF-7 [11]: 5 μM and 5 µM (IC30) μM
- IC60, MCF-7 [11]: 10 μM and 10 µM (IC60) μM
- IC70, MCF-7 [11]: 20 μM and 20 µM (IC70) μM
